In US20140056811A1, “NEW CELL-PENETRATING PEPTIDES AND USES THEREOF” (COMPUGEN LTD., priority 2010, published 2014):
Read-outs that look alike come from different tables or passages of the source. Square brackets hold non-standard residues; d marks the D form. Ends that are not written are not given here. Peptide text beside a SMILES is read from it. * marks the point of attachment. 5FAM = O=C1OC2(c3ccc(O)cc3Oc3cc(O)ccc32)c2ccc(C(=O)*)cc21

Key:
[1] = In vitro cytotoxicity by LDH (lactate dehydrogenase) analysis; type: cell-based; conditions: human; 5-FAM labeled peptides, 10 uM (also stated 10 ug/ml), 1 h, 37° C., HeLa cells; read-out: LDH % cytotoxicity
Method: In order to assess the in vitro cytotoxicity of the peptides, an LDH (lactate dehydrogenase) analysis was carried out, using LDH kit (Promega G1782), according to manufacturer instructions.
Briefly, HeLa cells from 5 ml of confluent T75 flask were seed in 96 well plate at 10×10^4 cells/mL in 0.1 ml DMEM supplied with 10% Fetal Calf Serum. After 24 hrs incubation with growth medium, wells were replaced with Serum Free growth medium for 24 hrs, and then cells were washed with OptiMEM and replaced with 0.1 ml peptide solution at 10 uM for 1 h at 37° C. 50 ul of supernatant were transferred to the new plate and detected according to Cyto Tox 96, Non Radioactive cytotoxicity assay, (LDH kit Promega G1782). Table 5 presents the results of in vitro cytotoxicity measurements by LDH for S22, S24, S36 and S40 peptides and two positive control peptides; Tat(47-57) and R9. LDH experiment was done with fluorescent labeled (5-FAM) peptides in concentration of […] and the % of cytotoxicity was measured by LDH levels.

HeLa cells = type: cell-based; conditions: for cell viability (MTT), FIG. 7: 26.6 ug/ml and 8.88 ug/ml, 16 hours, normalized by untreated cells; for dose response of cell viability (MTT), FIG. 8: average of duplicates
Method: In order to examine CPPs capability to deliver into the cell a cargo, the ability of the CPPs to facilitate intracellular cargo delivery of a pro apoptotic peptide—klaklakklaklak (also referred herein as (klaklak)2), was examined. (klaklak)2 is unable to efficiently penetrate cell membranes on its own, and thus using this pro-apoptotic peptide requires efficient intracellular delivery to trigger mitochondrial disruption and mitochondrial-dependent apoptosis. HeLa cells were seeded in DMEM supplemented with 10% fetal Bovine serum (FBS) in 96-well plates, 10,000 cells/well in a total volume of 200 μL 24 hours prior to their treatment with the peptide. Cells were incubated with any one of the CPPs and/or any one of the control peptides ([…]) conjugated to pro-apoptotic peptide (klaklak)2 through a short flexible linker of Gly-Gly (as described in the above peptide synthesis section for SEQ ID NOs: 24-32) for 16 hours under tissue culture conditions. Cell viability was then assessed using MTT[3-(4,5-dimethylthiazol-2-yl)-2,5-diphenyl-2H-tetrazo-liumbromide] assay (Catalog number M5655, Sigma, Israel). MTT reagent was added to cells for 4 hours, following cell lysis using DMSO and absorbance was measured at 492 nm. As positive controls (klaklak)2 conjugated to TAT or R9 were used, corresponding to SEQ ID NOs:26 and 25, respectively. As negative controls (klaklak)2 on its own (SEQ ID NO:31), (klaklak)2 conjugated to N5 ([…]) and peptides not conjugated to (klaklak)2 were used.

With N=C(N)NCCC[C@H](NC(=O)[C@H](CCCNC(=N)N)NC(=O)[C@H](CCCNC(=N)N)NC(=O)[C@H](CCCNC(=N)N)NC(=O)[C@H](CCCNC(=N)N)NC(=O)[C@H](CCCNC(=N)N)NC(=O)[C@H](CCCNC(=N)N)NC(=O)[C@H](CCCNC(=N)N)NC(=O)[C@H](CCCNC(=N)N)NC(=O)c1ccc2c(c1)C(=O)OC21c2ccc(O)cc2Oc2cc(O)ccc21)C(N)=O [9R, RRRRRRRRR, reference compound] as the molecule, how does the cytotoxicity at 1 h, 10 µM [1] read?
Its cytotoxicity at 1 h, 10 µM is 2%.

Which cytotoxicity at 1 h, 10 µM [1] does the source give for CC(C)C[C@H](NC(=O)[C@H](CCCCN)NC(=O)[C@H](CCCCN)NC(=O)[C@H](CC(C)C)NC(=O)[C@@H](NC(=O)[C@H](CCCCN)NC(=O)[C@H](CCCCN)NC(=O)c1ccc2c(c1)C(=O)OC21c2ccc(O)cc2Oc2cc(O)ccc21)[C@@H](C)O)C(=O)N[C@@H](Cc1c[nH]c2ccccc12)C(=O)N[C@@H](CCCCN)C(=O)N[C@@H](CCCCN)C(=O)N[C@@H](CCCCN)C(=O)N[C@@H](CCCCN)C(=O)N[C@@H](CCCNC(=N)N)C(=O)N[C@@H](CCCCN)C(N)=O [S24, KKTLKKLWKKKKRK] (5FAM-KKTLKKLWKKKKRK-NH2) here?
Its cytotoxicity at 1 h, 10 µM is 10%.

With CC(=O)N[C@@H](CCCCN)C(=O)N[C@@H](CCCCN)C(=O)N[C@H](C(=O)N[C@@H](CC(C)C)C(=O)N[C@@H](CCCCN)C(=O)N[C@@H](CCCCN)C(=O)N[C@@H](CC(C)C)C(=O)N[C@@H](Cc1c[nH]c2ccccc12)C(=O)N[C@@H](CCCCN)C(=O)N[C@@H](CCCCN)C(=O)N[C@@H](CCCCN)C(=O)N[C@@H](CCCCN)C(=O)N[C@@H](CCCNC(=N)N)C(=O)N[C@@H](CCCCN)C(=O)NCC(=O)NCC(=O)N[C@H](CCCCN)C(=O)N[C@H](CC(C)C)C(=O)N[C@H](C)C(=O)N[C@H](CCCCN)C(=O)N[C@H](CC(C)C)C(=O)N[C@H](C)C(=O)N[C@H](CCCCN)C(=O)N[C@H](CCCCN)C(=O)N[C@H](CC(C)C)C(=O)N[C@H](C)C(=O)N[C@H](CCCCN)C(=O)N[C@H](CC(C)C)C(=O)N[C@H](C)C(=O)N[C@H](CCCCN)C(N)=O)[C@@H](C)O [S24-klaklak, KKTLKKLWKKKKRKGG-klaklakklaklak] (Ac-KKTLKKLWKKKKRKGG[dK][dL][dA][dK][dL][dA][dK][dK][dL][dA][dK][dL][dA][dK]-NH2) as the molecule, how does the “cell viability (MTT), FIG. 7” value (HeLa cells; HeLa cells) read?
The value was “reduction in cell viability”.

What about the EC50 (HeLa cells; 16 hr, HeLa cells, unit only from the X axis (log uM concentration), read-out: EC50 of cell viability (MTT), FIG. 9) of the same molecule?
The EC50 was 8.45 µM.

Which cytotoxicity at 1 h, 10 µM [1] does the source give for N=C(N)NCCC[C@H](NC(=O)c1ccc2c(c1)C(=O)OC21c2ccc(O)cc2Oc2cc(O)ccc21)C(=O)N[C@@H](CCCNC(=N)N)C(=O)N[C@@H](CCCNC(=N)N)C(=O)N[C@@H](Cc1c[nH]cn1)C(=O)N[C@@H](CCC(N)=O)C(=O)N[C@@H](CCCNC(=N)N)C(=O)N[C@@H](CCCCN)C(=O)N[C@@H](Cc1ccc(O)cc1)C(=O)N[C@@H](CCCNC(=N)N)C(=O)N[C@@H](CCCNC(=N)N)C(=O)N[C@@H](Cc1ccc(O)cc1)C(N)=O [S36, RRRHQRKYRRY] (5FAM-RRRHQRKYRRY-NH2) here?
Its cytotoxicity at 1 h, 10 µM is 3%.

For CC(=O)N[C@@H](CCCNC(=N)N)C(=O)N[C@@H](CCCNC(=N)N)C(=O)N[C@@H](CCCNC(=N)N)C(=O)N[C@@H](Cc1c[nH]cn1)C(=O)N[C@@H](CCC(N)=O)C(=O)N[C@@H](CCCNC(=N)N)C(=O)N[C@@H](CCCCN)C(=O)N[C@@H](Cc1ccc(O)cc1)C(=O)N[C@@H](CCCNC(=N)N)C(=O)N[C@@H](CCCNC(=N)N)C(=O)N[C@@H](Cc1ccc(O)cc1)C(=O)NCC(=O)NCC(=O)N[C@H](CCCCN)C(=O)N[C@H](CC(C)C)C(=O)N[C@H](C)C(=O)N[C@H](CCCCN)C(=O)N[C@H](CC(C)C)C(=O)N[C@H](C)C(=O)N[C@H](CCCCN)C(=O)N[C@H](CCCCN)C(=O)N[C@H](CC(C)C)C(=O)N[C@H](C)C(=O)N[C@H](CCCCN)C(=O)N[C@H](CC(C)C)C(=O)N[C@H](C)C(=O)N[C@H](CCCCN)C(N)=O [S36-klaklak, RRRHQRKYRRYGG-klaklakklaklak] (Ac-RRRHQRKYRRYGG[dK][dL][dA][dK][dL][dA][dK][dK][dL][dA][dK][dL][dA][dK]-NH2), which “cell viability (MTT), FIG. 7” value (HeLa cells; HeLa cells) is on record?
The value was “reduction in cell viability”.

What about the EC50 (HeLa cells; 16 h) of the same molecule?
Its EC50 is 11.2 µM.

Which cytotoxicity at 1 h, 10 µM [1] does the source give for CC(C)C[C@H](NC(=O)[C@H](Cc1ccccc1)NC(=O)c1ccc2c(c1)C(=O)OC21c2ccc(O)cc2Oc2cc(O)ccc21)C(=O)N[C@@H](CCCNC(=N)N)C(=O)N[C@@H](CCCNC(=N)N)C(=O)N[C@@H](CCCNC(=N)N)C(=O)N[C@@H](CCCNC(=N)N)C(=O)N[C@@H](CCCNC(=N)N)C(=O)N[C@@H](Cc1ccccc1)C(=O)N[C@H](C(=O)N[C@@H](CCCNC(=N)N)C(=O)N[C@@H](CCC(N)=O)C(=O)N[C@H](C(N)=O)[C@@H](C)O)[C@@H](C)O [S40, FLRRRRRFTRQT] (5FAM-FLRRRRRFTRQT-NH2) here?
Its cytotoxicity at 1 h, 10 µM is 8%.

For “FLRRRRRFTRQTGG-klaklakklaklak (Ac-FLRRRRRFTRQTGG[dK][dL][dA][dK][dL][dA][dK][dK][dL][dA][dK][dL][dA][dK]-NH2) [S40-klaklak, S40 conjugated to (klaklak)2 with GG linker]”, which “cell viability (MTT), FIG. 7” value (HeLa cells; HeLa cells) is on record?
The value was “reduction in cell viability”.

Which “cell viability (MTT), FIG. 7” value (HeLa cells; HeLa cells) does the source give for “KPSARMLLLKGFGKGG-klaklakklaklak (Ac-KPSARMLLLKGFGKGG[dK][dL][dA][dK][dL][dA][dK][dK][dL][dA][dK][dL][dA][dK]-NH2) [S8-klaklak, S8 conjugated to (klaklak)2 with GG linker]” here?
Its value is “reduction in cell viability”.

Which “dose response of cell viability (MTT), FIG. 8” value (from here on “dose response of cell viability”) (HeLa cells; 16 hr, HeLa cells) does the source give for “RRRRRRRRRGG-klaklakklaklak (RRRRRRRRRGG[dK][dL][dA][dK][dL][dA][dK][dK][dL][dA][dK][dL][dA][dK]) [R9-klaklak, positive control R9 conjugated to (klaklak)2 with GG linker, reference compound]” here?
Its value is “effective dose response curve”.

For “VATIKSVSFYTRKGG-klaklakklaklak (Ac-VATIKSVSFYTRKGG[dK][dL][dA][dK][dL][dA][dK][dK][dL][dA][dK][dL][dA][dK]-NH2) [N2-klaklak, negative control peptide N2 conjugated to (klaklak)2 with GG linker, reference compound]”, which “dose response of cell viability” value (HeLa cells; 16 hr, HeLa cells) is on record?
Its value is “no dose response curve—no effect”.

With “YGRKKRRQRRRGG-klaklakklaklak (YGRKKRRQRRRGGKLAKLAKKLAKLAK) [TAT-klaklak, positive control TAT conjugated to (klaklak)2 with GG linker, reference compound]” as the molecule, how does the “dose response of cell viability” value (HeLa cells; 16 hr, HeLa cells) read?
The value was “effective dose response curve”.

For “klaklakklaklak (KLAKLAKKLAKLAK; D-amino acids) [(klaklak)2, pro apoptotic peptide used as cargo, reference compound]”, which “cell viability (MTT), FIG. 7” value (HeLa cells; HeLa cells) is on record?
The value was “almost no reduction in cell viability”.
